From ChEMBL document CHEMBL1201862, “PubChem BioAssay data set” (2004)
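96-well plates; 48 h exposure; 5 concentrations. Endpoints by linear interpolation between flanking doses. Not reached: highest tested concentration assigned. GI50 = concentration required for 50% inhibition of growth.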 Active and inactive are the calls of the source. Rule as the data show it: active = GI50 up to about 1.1 µM and inactive = higher.

What was measured:
Assay in all cases: growth of human tumour cells (NCI), 48 h
[1] = test system: 786-0
[2] = test system: A498
[3] = test system: A549
[4] = test system: ACHN
[5] = test system: BT-549
[6] = test system: CAKI-1
[7] = test system: CCRF-CEM
[8] = test system: COLO 205
[9] = test system: DU-145
[10] = test system: EKVX
[11] = test system: HCC 2998
[12] = test system: HCT-116
[13] = test system: HCT-15
[14] = test system: HL-60
[15] = test system: HOP-62
[16] = test system: HOP-92
[17] = test system: HT-29
[18] = test system: Hs-578T
[19] = test system: IGROV-1
[20] = test system: K562
[21] = test system: KM12
[22] = test system: LOX IMVI
[23] = test system: M14
[24] = test system: MCF7
[25] = test system: MDA-MB-231
[26] = test system: MDA-MB-435
[27] = test system: MDA-N
[28] = test system: MOLT-4
[29] = test system: Malme-3M
[30] = test system: NCI-H226
[31] = test system: NCI-H23
[32] = test system: NCI-H460
[33] = test system: NCI-H522
[34] = test system: NCI/ADR-RES
[35] = test system: OVCAR-3
[36] = test system: OVCAR-4
[37] = test system: OVCAR-5
[38] = test system: OVCAR-8
[39] = test system: PC-3
[40] = test system: RPMI-8226
[41] = test system: RXF 393
[42] = test system: SF-268
[43] = test system: SF-295
[44] = test system: SF-539
[45] = test system: SK-MEL-28
[46] = test system: SK-MEL-2
[47] = test system: SK-MEL-5
[48] = test system: SK-OV-3
[49] = test system: SN12C
[50] = test system: SNB-19
[51] = test system: SNB-75
[52] = test system: SR
[53] = test system: SW-620
[54] = test system: TK-10
[55] = test system: U-251
[56] = test system: UACC-257
[57] = test system: UACC-62
[58] = test system: UO-31
[59] = test system: T47D

With `C/C(Cl)=N/OC(=O)Nc1ccc(F)c([N+](=O)[O-])c1` the GI50 [1] was 4 µM (inactive), the GI50 [2] was 19.5 µM (inactive) and the GI50 [3] was 26.2 µM (inactive). For the same molecule, the GI50 [4] was 3.02 µM (inactive), the GI50 [5] was 14.1 µM (inactive) and the GI50 [6] was 1.79 µM (inactive). The GI50 [7] was 2.13 µM (inactive), the GI50 [8] was 2.34 µM (inactive) and the GI50 [9] was 17.3 µM (inactive). For the same molecule, the GI50 [10] was 16.3 µM (inactive), the GI50 [11] was 37.3 µM (inactive) and the GI50 [12] was 3.89 µM (inactive). For the same molecule, the GI50 [13] was 5.94 µM, the GI50 [14] was 1.94 µM (inactive) and the GI50 [15] was 18.2 µM (inactive). For the same molecule, the GI50 [16] was 5.4 µM (inactive), the GI50 [17] was 19.6 µM (inactive) and the GI50 [18] was 0.457 µM (active). For the same molecule, the GI50 [19] was 6.97 µM (inactive), the GI50 [20] was 2.57 µM (inactive) and the GI50 [21] was 17.1 µM (inactive). For the same molecule, the GI50 [22] was 6.68 µM (inactive), the GI50 [23] was 19.2 µM (inactive) and the GI50 [24] was 15.2 µM (inactive). For the same molecule, the GI50 [25] was 17.5 µM (inactive), the GI50 [26] was 14.5 µM (inactive) and the GI50 [27] was 16 µM (inactive). For the same molecule, the GI50 [28] was 1.78 µM (inactive), the GI50 [29] was 2.65 µM (inactive) and the GI50 [30] was 26.4 µM (inactive). For the same molecule, the GI50 [31] was 20 µM (inactive), the GI50 [32] was 4.75 µM (inactive) and the GI50 [33] was 1.81 µM (inactive). The GI50 [34] was 30.3 µM (inactive), the GI50 [35] was 19.2 µM (inactive) and the GI50 [36] was 7.36 µM (inactive). The GI50 [37] was 24.2 µM (inactive), the GI50 [38] was 8.91 µM (inactive) and the GI50 [39] was 17.8 µM (inactive). The GI50 [40] was 2.65 µM (inactive), the GI50 [41] was 12.1 µM (inactive) and the GI50 [42] was 15.4 µM (inactive). The GI50 [43] was 31.1 µM (inactive), the GI50 [44] was 33.3 µM (inactive) and the GI50 [45] was 17.6 µM (inactive). The GI50 [46] was 17.6 µM (inactive), the GI50 [47] was 14 µM (inactive) and the GI50 [48] was 20.9 µM (inactive). For the same molecule, the GI50 [49] was 7.57 µM (inactive), the GI50 [50] was 20.1 µM (inactive) and the GI50 [51] was 1.71 µM (inactive). For the same molecule, the GI50 [52] was 8.57 µM (inactive), the GI50 [53] was 3.71 µM (inactive) and the GI50 [54] was 6.1 µM (inactive). The GI50 [55] was 20 µM (inactive), the GI50 [56] was 20.7 µM (inactive) and the GI50 [57] was 21.3 µM (inactive). The GI50 [58] was 8.05 µM (inactive).
With `CN(C)c1ccc(/C=C2\CCCCCC2=O)cc1` the GI50 [1] was 87.1 µM (inactive), the GI50 [2] was > 100 µM (inactive) and the GI50 [3] was > 100 µM (inactive). For the same molecule, the GI50 [4] was 58.7 µM (inactive), the GI50 [5] was 81.5 µM (inactive) and the GI50 [6] was > 100 µM (inactive). For the same molecule, the GI50 [7] was > 100 µM (inactive), the GI50 [8] was > 100 µM (inactive) and the GI50 [9] was > 100 µM (inactive). For the same molecule, the GI50 [10] was > 100 µM (inactive), the GI50 [11] was > 100 µM (inactive) and the GI50 [12] was 57.3 µM (inactive). For the same molecule, the GI50 [14] was > 100 µM (inactive), the GI50 [15] was 66.7 µM (inactive) and the GI50 [17] was > 100 µM (inactive). The GI50 [19] was > 100 µM (inactive), the GI50 [20] was > 100 µM (inactive) and the GI50 [21] was > 100 µM (inactive). The GI50 [23] was 79.1 µM (inactive), the GI50 [24] was > 100 µM (inactive) and the GI50 [25] was 32.7 µM (inactive). The GI50 [26] was > 100 µM (inactive), the GI50 [27] was > 100 µM (inactive) and the GI50 [28] was > 100 µM (inactive). For the same molecule, the GI50 [29] was > 100 µM (inactive), the GI50 [32] was 31.6 µM (inactive) and the GI50 [34] was > 100 µM (inactive). The GI50 [35] was 71.1 µM (inactive), the GI50 [37] was > 100 µM (inactive) and the GI50 [38] was > 100 µM (inactive). The GI50 [39] was 65 µM (inactive), the GI50 [40] was 94.4 µM (inactive) and the GI50 [41] was > 100 µM (inactive). For the same molecule, the GI50 [42] was > 100 µM (inactive), the GI50 [43] was > 100 µM (inactive) and the GI50 [44] was > 100 µM (inactive). The GI50 [45] was > 100 µM (inactive), the GI50 [46] was > 100 µM (inactive) and the GI50 [47] was 56 µM (inactive). The GI50 [48] was > 100 µM (inactive), the GI50 [49] was > 100 µM (inactive) and the GI50 [50] was > 100 µM (inactive). The GI50 [51] was > 100 µM (inactive), the GI50 [52] was > 100 µM (inactive) and the GI50 [53] was > 100 µM (inactive). For the same molecule, the GI50 [59] was 38.5 µM (inactive), the GI50 [54] was > 100 µM (inactive) and the GI50 [56] was 74.3 µM (inactive). For the same molecule, the GI50 [57] was 90.4 µM (inactive) and the GI50 [58] was 50.6 µM (inactive).
